SMILES strings stand for the structures.

This experiment has as its system soybean Asian rust—Phakopsora pachyrhizi (PHAKPA). Nature of the experiment: Efficacy on soybean rust: greenhouse soybean plants sprayed, then inoculated with spore suspension. It counts as in vivo, Phakopsora pachyrhizi on soybean plants. Particulars: pre-inoculation; for PHAKPA Control % 14 DAA: 14 days after application; for PHAKPA Control % 12 DAA: 12 days after application. On the procedure:
Soybean plants were inoculated with an aqueous spore suspension of the fungal pathogen (soybean Asian rust—Phakopsora pachyrhizi) at 2 h and 24 h post compound application. Additionally, infected untreated plants with sporulating lesions were placed among the test pots throughout the duration of the tests. The soybean plants were propagated from seed in a greenhouse, at a density of 3 seeds per pot containing a sandy loam. The plants were sprayed at growth stage V2 to V3 (2-3 trifoliates developed) and subsequently inoculated with the pathogen at the time intervals indicated above. Following inoculation, the plants were maintained under conditions of high humidity and at 26° C. to support spore germination and host leaf colonization. Assessments were made 12-15 days after inoculation. Aliquots of a 10% SC formulation of Compound I were diluted into water to achieve spray solutions containing 25, 100 and 400 ppm of the active ingredient. The spray solutions were also supplemented with either Trycol 5941 or one of several alternative adjuvant chemistries. Treatment solutions were sprayed to run-off using a hand held sprayer.

Setting [1] is: 400 ppm Compound I + Trycol 5941 0.2 % v/v.

As for `COc1ccnc(C(=O)N[C@H]2COC(=O)[C@H](Cc3ccccc3)[C@@H](OC(=O)C(C)C)[C@H](C)OC2=O)c1OCOC(=O)C(C)C` [Compound I], the “PHAKPA Control % 14 DAA” value (25 ppm Compound I + Trycol 5941 0.2 % v/v) was “D (1-25)”, the “PHAKPA Control % 14 DAA” value (100 ppm Compound I + Trycol 5941 0.2 % v/v) is given as “C (26-50)” and the “PHAKPA Control % 14 DAA” value under setting [1] is reported as “A (76-100)”. The “PHAKPA Control % 12 DAA” value runs as follows: (400 ppm Compound I + Agbem 0.2 % v/v) “B (51-75)”; (400 ppm Compound I + Agral 0.2 % v/v) “B (51-75)”; (400 ppm Compound I + Aterbane 0.2 % v/v) “B (51-75)”; (400 ppm Compound I + Joint 0.2 % v/v) “A (76-100)”; (400 ppm Compound I + Nimbus 0.2 % v/v) “A (76-100)”; under setting [1], “B (51-75)”. Besides, the “PHAKPA Control % 12 DAA” value (400 ppm Compound I + Vegetable Oil 0.2 % v/v) is reported as “A (76-100)”.

These data come from patent US20130296372A1, “USE OF PRO-[…] UK-2A FOR CONTROL OF SOYBEAN RUST” (DOW AGROSCIENCES LLC, priority 2012, published 2013).
